The target of data set [1] is T1, B7-1/CD28 (Homo sapiens, UniProt P33681).
T1 sequence (P33681 35-242 limits assumed): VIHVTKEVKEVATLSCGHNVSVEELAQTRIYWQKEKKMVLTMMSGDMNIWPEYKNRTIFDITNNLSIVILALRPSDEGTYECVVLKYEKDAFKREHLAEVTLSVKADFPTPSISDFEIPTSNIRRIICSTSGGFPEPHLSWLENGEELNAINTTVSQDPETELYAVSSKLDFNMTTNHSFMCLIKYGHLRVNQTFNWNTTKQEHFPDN
The data set is described as follows: CD28/B7-1 ELISA (B7-1/CD28 binding inhibition). The following applies: CD28-Fc coated wells; B7-1-Fc-biotin/streptavidin-alkaline phosphatase detection complex; 1% DMSO. On the procedure: Evaluation of B7-1/CD28 Binding Inhibition for Test Compounds
Wells are coated with 300 ng CD28-Fc in carbonate buffer (pH 9.4) overnight at 4° C., blocked with 1% bovine serum albumin in tris-buffered saline (TBS) for 1 h at 22° C. and washed 3 times in TBS prior to assay. The detection complex is formed as follows: B7-1-Fc-biotin, prepared using NHS-LC-biotin (Pierce #21335) according to the manufacturers instructions (4.1 moles biotinimole Fc), is added at 0.8 ug/ml to streptavidin-alkaline phosphatase (Caltag Sa1008) at 1:1000 in TBS. A solution of test compound in dimethylsulfoxide (1% final) are added to this complex and incubated 30 min at 22° C. Detection complex (+/−inhibitors) is then added to the CD28 coated wells for 25 min at 22° C., washed 5 times with TBS, developed with the colorimetric substrate pNPP (Pierce #34045) in diethanolamine/MgCl2 buffer (pH 9.5) and read at 405 nm. The inhibition constant (IC50) is calculated by subtracting background binding and comparing to uninhibited (DMSO alone) controls. The inhibition constant represents the concentration of test compound required to achieve 50% inhibition.
Background: An ELISA detects its analyte on a solid surface through an enzyme-linked reagent.

pIC50: −log10 of the molar value.

For `Cn1ncc2c3[nH]n(-c4cccc(C(=O)N5CCC[C@H]5C(=O)O)c4)c(=O)c3c(-c3cccc(C(F)(F)F)c3)nc21` [Example 69], the melting point (commonly the temperature of the solid-liquid transition) lay in the range of 168 to 171 °C. Also, in data set [1], the pIC50 (commonly the IC50 on a negative log10 scale, so that one unit is a factor of ten) is 7.00.

As for `Cn1ncc2c3[nH]n(-c4ccc(C(=O)NCc5ccccc5)cc4)c(=O)c3c(-c3cccc(C(F)(F)F)c3)nc21` [Example 32], the melting point lay within 189 to 192 °C. Moreover, the pIC50 in data set [1] is 7.10.

`CN1CCN(C(=O)c2ccc(-n3[nH]c4c(c(-c5cccc(C(F)(F)F)c5)nc5c4cnn5C)c3=O)cc2)CC1` [Example 27] returned a melting point of 191 to 194 °C. In data set [1], this compound showed a pIC50 of 6.30.

Turning to `Cn1ncc2c3[nH]n(-c4ccc(C(=O)Nc5ccc(O)c(O)c5)cc4)c(=O)c3c(-c3cccc(C(F)(F)F)c3)nc21` [Example 98], the melting point was 206 to 209 °C. For the same compound, the pIC50 in data set [1] was 7.44.

In the case of `Cn1ncc2c3[nH]n(-c4cccc(C(=O)NCc5ccc(N)cc5)c4)c(=O)c3c(-c3cccc(C(F)(F)F)c3)nc21` [Example 16], the melting point is 183 °C (dec.). The compound further had a pIC50 in data set [1] of 7.24.

Compound `Cn1ncc2c3[nH]n(-c4ccc(C(=O)N5CCOCC5)c(F)c4)c(=O)c3c(-c3cccc(C(F)(F)F)c3)nc21` [Example 30] displayed a melting point of 176 to 179 °C. Besides, the pIC50 in data set [1] is 6.51.

On to `Cn1ncc2c3[nH]n(-c4ccc(C(=O)NCCCO)cc4)c(=O)c3c(-c3cccc(C(F)(F)F)c3)nc21` [Example 28], for which the melting point is 193 to 195 °C. In data set [1], this compound showed a pIC50 of 7.01.

`Cn1ncc2c3[nH]n(-c4cccc(C(=O)N5CCCC5)c4)c(=O)c3c(-c3cccc(C(F)(F)F)c3)nc21` [Example 11, 6-methyl-2-[3-(1-pyrrolidinylcarbonyl)phenyl]-4-[3-(trifluoromethyl)phenyl]-1,6-dihydrodipyrazolo[3,4-b:3,4-d]pyridin-3(2H)-one] gave a melting point of 255 to 258 °C. In data set [1], the pIC50 was 7.36.

For the compound `Cn1ncc2c3[nH]n(-c4ccc(C(=O)Nc5cccc6c5CCCC6O)cc4)c(=O)c3c(-c3cccc(C(F)(F)F)c3)nc21` (stereo not drawn) [Example 43], the melting point was 298 °C (dec.). This compound also gave a pIC50 in data set [1] of 6.52.

In the case of `Cn1ncc2c3[nH]n(-c4ccc(C(=O)NCCCCO)cc4)c(=O)c3c(-c3cccc(C(F)(F)F)c3)nc21` [Example 37], the melting point was 280 °C (dec.). The same compound gave a pIC50 in data set [1] of 7.06.

Consider `COC(=O)C1CCN(C(=O)c2ccc(-n3[nH]c4c(c(-c5cccc(C(F)(F)F)c5)nc5c4cnn5C)c3=O)cc2)CC1` [Example 26], for which the melting point is 187 °C (dec.). The same compound gave a pIC50 in data set [1] of 7.05.

`CC(O)c1cccc(NC(=O)c2ccc(-n3[nH]c4c(c(-c5cccc(C(F)(F)F)c5)nc5c4cnn5C)c3=O)cc2)c1` (stereo not drawn) [Example 25]: the melting point was 251 to 254 °C. The compound further gave a pIC50 in data set [1] of 8.52.

As to `CC(=O)c1cccc(NC(=O)c2ccc(-n3[nH]c4c(c(-c5cccc(C(F)(F)F)c5)nc5c4cnn5C)c3=O)cc2)c1` [Example 38], the melting point is 300 °C (dec.). In data set [1], this compound showed a pIC50 of 7.36.

`Cn1ncc2c3[nH]n(-c4ccc(C(=O)NCCCCCN)cc4)c(=O)c3c(-c3cccc(C(F)(F)F)c3)nc21` [Example 39] came in with a melting point of 234.5 to 236 °C. Further, the pIC50 in data set [1] is 6.85.

Consider `CC(O)c1cccc(NC(=O)c2ccc(-n3[nH]c4c(c(-c5cccc(C(F)(F)F)c5)nc5c4cnn5C)c3=O)cc2F)c1` (stereo not drawn) [Example 24], for which the melting point is above 350 °C. Also, the pIC50 in data set [1] was 6.96.

As for `Cn1ncc2c3[nH]n(-c4ccc(C(=O)Nc5ccc(CCO)cc5)cc4)c(=O)c3c(-c3cccc(C(F)(F)F)c3)nc21` [Example 34], the melting point was in the range of 186 to 189 °C. Further, in data set [1], the pIC50 is 7.64.

The compound `COc1cc(CNC(=O)c2cccc(-n3[nH]c4c(c(-c5cccc(C(F)(F)F)c5)nc5c4cnn5C)c3=O)c2)ccc1O` [Example 17] returned a melting point of 172 to 176 °C. This compound also gave a pIC50 in data set [1] of 7.26.

`Cn1ncc2c3[nH]n(-c4ccc(C(=O)Nc5cccc(CO)c5)cc4)c(=O)c3c(-c3cccc(C(F)(F)F)c3)nc21` [Example 35, N-[3-(hydroxymethyl)phenyl]4-(6-methyl-3-oxo-4-[3-(trifluoromethyl)phenyl]-3,6-dihydrodipyrazolo[3,4-b:3,4-d]pyridin-2(1H)-yl)benzamide] had a pIC50 in data set [1] of 7.77.

The compound `COC(=O)c1cn(C(=O)c2cccc(-n3[nH]c4c(c(-c5cccc(C(F)(F)F)c5)nc5c4cnn5C)c3=O)c2)c2ccccc12` [Example 15] gave a pIC50 in data set [1] of 7.20.

In data set [1], `Cn1ncc2c3[nH]n(-c4ccc(C(N)=O)cc4)c(=O)c3c(-c3cccc(C(F)(F)F)c3)nc21` [Example 70] had a pIC50 of 7.42.

Take `Cn1ncc2c3[nH]n(-c4ccc(F)c(C(=O)Nc5ccc(CCO)cc5)c4)c(=O)c3c(-c3cccc(C(F)(F)F)c3)nc21` [Example 62]: the pIC50 in data set [1] is 6.42.

In data set [1], `Cc1c(CO)cccc1NC(=O)c1ccc(-n2[nH]c3c(c(-c4cccc(C(F)(F)F)c4)nc4c3cnn4C)c2=O)cc1` [Example 84] showed a pIC50 of 7.05.

For `CCOC(=O)c1cccc(NC(=O)c2cccc(-n3[nH]c4c(c(-c5cccc(C(F)(F)F)c5)nc5c4cnn5C)c3=O)c2)c1` [Example 48], the pIC50 in data set [1] is 6.36.

For `CCN(CC)C(=O)C1CCCN(C(=O)c2ccc(-n3[nH]c4c(c(-c5cccc(C(F)(F)F)c5)nc5c4cnn5C)c3=O)cc2)C1` (stereo not drawn) [Example 88], the pIC50 in data set [1] was 6.54.

As to `Cn1ncc2c3[nH]n(-c4ccc(C(=O)Nc5cccc(O)c5)cc4)c(=O)c3c(-c3cccc(C(F)(F)F)c3)nc21` [Example 71], the pIC50 in data set [1] was 6.85.

Consider `COc1ccc(CNC(=O)c2cccc(-n3[nH]c4c(c(-c5cccc(C(F)(F)F)c5)nc5c4cnn5C)c3=O)c2)cc1` [Example 60], for which the pIC50 in data set [1] was 6.74.

Take `Cn1ncc2c3[nH]n(-c4ccc(S(=O)(=O)NCC5CC5)cc4)c(=O)c3c(-c3cccc(C(F)(F)F)c3)nc21` [Example 106, N-cyclopropylmethyl-4-[6-methyl-3-oxo-4-(3-trfluoromethyl-phenyl)-3,6-dihydro-1H-1,2,5,6,7-pentaaza-as-indacen-2-yl]-benzenesulfonamide]: the pIC50 in data set [1] is 6.05.

`CN(CCC(N)=O)C(=O)c1ccc(-n2[nH]c3c(c(-c4cccc(C(F)(F)F)c4)nc4c3cnn4C)c2=O)cc1` [Example 85] had a pIC50 in data set [1] of 5.74.

For the compound `Cn1ncc2c3[nH]n(-c4cccc(C(=O)NCc5ccccc5)c4)c(=O)c3c(-c3cccc(C(F)(F)F)c3)nc21` [Example 49], the pIC50 in data set [1] was 6.92.

Turning to `CN(C)CCCNC(=O)c1ccc(-n2[nH]c3c(c(-c4cccc(C(F)(F)F)c4)nc4c3cnn4C)c2=O)cc1` [Example 90], the pIC50 in data set [1] was 6.80.

As to `COC(=O)[C@H]1CCCN1C(=O)c1cccc(-n2[nH]c3c(c(-c4cccc(C(F)(F)F)c4)nc4c3cnn4C)c2=O)c1` [Example 53], the pIC50 in data set [1] is 6.57.

For `Cn1ncc2c3[nH]n(-c4ccc(C(=O)N5CCC(O)CC5)cc4)c(=O)c3c(-c3cccc(C(F)(F)F)c3)nc21` [Example 94], in data set [1], the pIC50 was 5.92.

On to `Cn1ncc2c3[nH]n(-c4ccc(C(=O)NCCCCCO)cc4)c(=O)c3c(-c3cccc(C(F)(F)F)c3)nc21` [Example 96], for which the pIC50 in data set [1] is 7.04.

Consider `COCCNC(=O)c1cccc(-n2[nH]c3c(c(-c4cccc(C(F)(F)F)c4)nc4c3cnn4C)c2=O)c1` [Example 20], for which the pIC50 in data set [1] was 7.21.

In data set [1], `CN(CCO)C(=O)c1cccc(-n2[nH]c3c(c(-c4cccc(C(F)(F)F)c4)nc4c3cnn4C)c2=O)c1` [Example 14] gave a pIC50 of 7.21.

Consider `COC(=O)[C@H]1CCCN1C(=O)c1cc(-n2[nH]c3c(c(-c4cccc(C(F)(F)F)c4)nc4c3cnn4C)c2=O)ccc1Cl` [Example 64], for which the pIC50 in data set [1] is 6.74.

The compound `Cn1ncc2c3[nH]n(-c4ccc(C(=O)Nc5ccccc5O)cc4)c(=O)c3c(-c3cccc(C(F)(F)F)c3)nc21` [Example 74, N-(2-hydroxyphenyl)-4-{6-methyl-3-oxo-3-[3-(trfluoromethyl)phenyl]-3,6-dihydrodipyrazolo[3,4-b:3′,4′-d]pyridin-2(1H)-yl}benzamide] showed a pIC50 in data set [1] of 7.77.

Consider `CN(CCC#N)C(=O)c1cccc(-n2[nH]c3c(c(-c4cccc(C(F)(F)F)c4)nc4c3cnn4C)c2=O)c1` [Example 61], for which the pIC50 in data set [1] was 6.48.

In the case of `Cn1ncc2c3[nH]n(-c4ccc(C(=O)Nc5ccc(O)cc5)cc4)c(=O)c3c(-c3cccc(C(F)(F)F)c3)nc21` [Example 73], the pIC50 in data set [1] was 7.96.

In turn, `CC(O)CNC(=O)c1cccc(-n2[nH]c3c(c(-c4cccc(C(F)(F)F)c4)nc4c3cnn4C)c2=O)c1` (stereo not drawn) [Example 19, N-(2-hydroxypropyl)-3-(6-methyl-3-oxo-4-[3-(trifluoromethyl)phenyl]-3,6-dihydrodipyrazolo[3,4-b:3,4-d]-pyridin-2(1H)-yl)benzamide] had a pIC50 in data set [1] of 7.35.

These data come from patent US6734190B2, “Dihydrodipyrazolopyridinylbenzamide and -sulfonamide inhibitors of B7-1” (Wyeth, priority 2002, dated 2004).
